In patent publication US20260124226A1 (priority 2023, published 2026):
Where “and” joins values, the source holds several entries; their conditions need not be identical. Equal entries are not always repeated. Where two headings read alike, the source gives them in different places.

Columns and labels:
[1] = test system: VEEV; experiment: microbe, parasite or virus in culture; type: cell-based, Venezuelan equine encephalitis virus; conditions: Venezuelan equine encephalitis virus
[2] = test system: EEEV; experiment: microbe, parasite or virus in culture; type: cell-based, Eastern equine encephalitis virus
[3] = test system: WEEV; experiment: microbe, parasite or virus in culture; type: cell-based, Western equine encephalitis virus; conditions: Vero76 cells
[4] = test system: CHIKV; experiment: microbe, parasite or virus in culture; type: cell-based, Chikungunya virus
[5] = test system: Heartland virus; experiment: microbe, parasite or virus in culture; type: cell-based; conditions: Vero
[6] = test system: Marpol virus; experiment: organism not typed; type: cell-based
[7] = test system: Punta Toro virus; experiment: microbe, parasite or virus in culture; type: cell-based
[8] = test system: Severe fever thrombocytopenia syndrome virus; experiment: organism not typed; type: cell-based; conditions: Vero
[9] = test system: Lassa fever virus; experiment: organism not typed; type: cell-based; conditions: Vero
[10] = test system: Junin virus; experiment: microbe, parasite or virus in culture; type: cell-based; conditions: for EC50: Junin virus strain Candid #1, Vero cells
[11] = test system: Lymphocytic choriomeningitis virus; experiment: microbe, parasite or virus in culture; type: cell-based; conditions: Mammarenavirus choriomeningitidis, Vero
[12] = test system: Tacaribe virus; experiment: microbe, parasite or virus in culture; type: cell-based; conditions: for EC50: Tacaribe virus strain TRVL 11573, Vero cells
[13] = test system: Influenza A H1N1; experiment: microbe, parasite or virus in culture; type: cell-based, influenza A virus; conditions: Influenza A virus, H1N1, MDCK
[14] = test system: Flu A H3N2; experiment: microbe, parasite or virus in culture; type: cell-based, influenza A virus; conditions: Influenza A virus, H3N2, MDCK
[15] = test system: Flu A H5N1 (Low Path); experiment: microbe, parasite or virus in culture; type: cell-based, influenza A virus; conditions: Influenza A virus, H5N1, MDCK
[16] = test system: Flu B; experiment: microbe, parasite or virus in culture; type: cell-based, influenza B virus; conditions: Influenza B virus, MDCK
[17] = test system: Parainfluenza virus 3; experiment: organism not typed; type: cell-based
[18] = test system: EBOV; experiment: microbe, parasite or virus in culture; type: cell-based, Ebola virus; conditions: Zaire ebolavirus, Vero
[19] = test system: Marburg virus; experiment: microbe, parasite or virus in culture; type: cell-based; conditions: Filoviridae, Vero
[20] = test system: Enterovirus-68; experiment: microbe, parasite or virus in culture; type: cell-based, EV-D68
[21] = test system: HRV-14; experiment: microbe, parasite or virus in culture; type: cell-based, human rhinovirus
[22] = test system: Murine Norovirus; experiment: microbe, parasite or virus in culture; type: cell-based; conditions: Norwalk virus, RAW264.7
[23] = test system: CEM; experiment: EIDD-2749 cytotoxicity; type: cell-based; conditions: CEM cells
[24] = test system: Huh-7; experiment: EIDD-2749 cytotoxicity; type: cell-based, human; conditions: Huh-7 cells
[25] = test system: A-204; experiment: EIDD-2749 cytotoxicity; type: cell-based; conditions: A-204 cells
[26] = test system: IEC-6; experiment: EIDD-2749 cytotoxicity; type: cell-based; conditions: IEC-6 cells
[27] = test system: Vero; experiment: EIDD-2749 cytotoxicity; type: cell-based, African green monkey; conditions: Vero cells
[28] = test system: Vero 76 cells; conditions: African green monkey
[29] = test system: Vero cells; conditions: African green monkey
[30] = test system: Vero E6 cells; conditions: African green monkey
[31] = test system: Huh-7 cells; conditions: human
[32] = CD-1, mouse, microsomes
[33] = male, Sprague-Dawley, rat, microsomes, pH 7.4
[34] = female, ICR (CD-1), mouse, in vivo
[35] = Plasma stability; conditions: human plasma, drug 1.00 μM, 37° C.
[36] = Plasma stability; conditions: mouse plasma, drug 1.00 μM
[37] = Plasma stability; conditions: rat plasma, drug 1.00 μM
[38] = test system: HG23 cells; experiment: Cytotoxicity (CC50) run with the norovirus assay
[39] = Mammarenavirus tacaribeense, Vero

Compound: O=c1ccn([C@@H]2O[C@](F)(CO)[C@@H](O)[C@H]2O)c(=O)[nH]1 [EIDD-2749, 4′-fluorouridine]
- EC90 ([1]; Vero 76): 213 µM
- EC50 ([1]; Vero 76, VEEV strain TC-83, Vero 76 cells): 7.6 µM
- EC50 ([2]; EEEV strain FL93-939, Vero76 cells): > 380 µM
- EC50 ([2]; Eastern equine encephalitis virus, Vero 76, EEEV strain FL93-939, Vero76 cells): 380 µM
- EC50 ([3]; WEEV strain California): 11.8 µM
- EC50 ([3]; Western equine encephalitis virus, Vero 76, WEEV strain California): 9.88 µM
- EC50 [4]: 2.05 µM and 3.42 µM
- EC50 ([4]; Chikungunya virus, Vero 76): 1.98 µM
- EC90 ([4]; Chikungunya virus, Vero 76): 9.12 µM
- EC90 [5]: 122 µM
- EC50 [6]: 57 µM
- EC50 ([6]; Vero C1008): 95 µM
- EC50 [7]: 91.2 µM
- EC50 ([7]; Punta Toro virus, Vero 76): 72.2 µM
- EC90 [8]: > 380 µM
- EC50 [9]: 0.38 µM
- EC90 [9]: 9 µM
- EC50 [10]: 1.29 µM
- EC90 ([10]; Mammarenavirus juninense, Vero): 0.38 µM
- EC50 ([10]; Mammarenavirus juninense, Vero): 1.86 µM
- EC90 [11]: 7.22 µM
- EC90 [12, 39]: 0.87 µM
- EC50 [12, 39]: < 0.38 µM
- EC50 [12]: 0.34 µM
- EC50 [13]: < 0.38 µM
- EC50 [14]: < 0.38 µM
- EC50 [15]: < 0.38 µM
- EC50 [16]: < 0.38 µM
- EC50 [17]: 60.8 µM
- EC50 ([17]; MA104): 98.8 µM
- EC50 [18]: 1.52 µM
- EC90 [18]: 22 µM
- EC50 [19]: > 380 µM
- EC50 [20]: 11.8 µM
- EC50 ([20]; Enterovirus D, RD): 13.7 µM
- EC50 [21]: 1.14 µM
- EC50 ([21]; Rhinovirus B, HRV14): 1.22 µM
- EC50 [22]: 2.2 µM
- EC90 [22]: 7.2 µM
- CC50 [23]: 107 µM
- CC50 [24]: > 400 µM
- CC50 [25]: > 400 µM
- CC50 [26]: 372 µM
- CC50 [27]: > 400 µM
- CC50 [28]: > 380 µM
- CC50 [29]: > 380 µM
- CC50 [30]: > 380 µM
- CC50 [31]: > 380 µM
- half-life [32]: 27 min
- half-life [33]: 25 min
- AUC-INF ([34]; ip, 10 mg/kg): 19.6 µM·h
- Cmax ([34]; ip, 10 mg/kg): 7.7 ± 2.3 µM
- t1/2 ([34]; ip, 10 mg/kg): 378 min
- AUC-INF ([34]; po, 50 mg/kg): 232.3 µM·h
- Bioavailability ([34]; po, 50 mg/kg): 236%
- Cmax ([34]; po, 50 mg/kg): 35.2 ± 9.7 µM
- t1/2 ([34]; po, 50 mg/kg): 498 min
- AUC-INF ([34]; po, 150 mg/kg): 392.3 µM·h
- Bioavailability ([34]; po, 150 mg/kg): 133%
- Cmax ([34]; po, 150 mg/kg): 43.6 ± 2.8 µM
- t1/2 ([34]; po, 150 mg/kg): 510 min
- AUC-INF ([34]; po, 500 mg/kg): 755.2 µM·h
- Bioavailability ([34]; po, 500 mg/kg): 77.0%
- Cmax ([34]; po, 500 mg/kg): 76 ± 15.3 µM
- t1/2 ([34]; po, 500 mg/kg): 774 min
- half-life [35]: 26 min
- half-life [36]: 37 min
- half-life [37]: 22 min
- CC50 [38]: 100 µM
